Literature values in patent US20040192598A1, “Composition and method of alleviating adverse side effects and/or enhancing efficacy of agents that inhibit aromatase” (priority 2000, published 2004).
Read-outs that look alike come from different tables or passages of the source.

Experiments:
aromatase = molecular target: T1, aromatase (Homo sapiens, UniProt P11511); settings: treatment for breast cancer
T1 construct: host or cells: patients (in vivo, endogenous enzyme)
T1 sequence (P11511 1-503): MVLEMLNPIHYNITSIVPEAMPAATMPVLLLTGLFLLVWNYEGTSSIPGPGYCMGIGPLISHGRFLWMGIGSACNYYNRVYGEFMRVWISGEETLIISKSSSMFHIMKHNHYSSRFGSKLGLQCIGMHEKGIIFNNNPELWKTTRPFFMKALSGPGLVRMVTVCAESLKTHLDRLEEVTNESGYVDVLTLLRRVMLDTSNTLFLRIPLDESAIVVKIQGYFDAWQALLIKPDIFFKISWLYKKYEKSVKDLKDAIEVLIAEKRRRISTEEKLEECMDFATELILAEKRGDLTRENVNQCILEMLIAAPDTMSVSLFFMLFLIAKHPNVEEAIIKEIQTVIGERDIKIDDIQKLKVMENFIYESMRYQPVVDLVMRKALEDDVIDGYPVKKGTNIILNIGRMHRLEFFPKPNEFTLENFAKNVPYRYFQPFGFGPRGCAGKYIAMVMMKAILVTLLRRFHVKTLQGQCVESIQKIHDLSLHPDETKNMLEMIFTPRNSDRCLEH

| Compound | serum estrogen levels (aromatase) | further results |
| --- | --- | --- |
| CC(C)(C#N)c1cc(Cn2cncn2)cc(C(C)(C)C#N)c1 [anastrozole] | suppress serum estrogen levels to the limit of assay detection | – |
| Clc1ccccc1C(c1ccccc1)(c1ccccc1)n1ccnc1 [clotrimazole] | – | relative risk for spontaneous abortion (in vivo): increased relative risk was also noted |
| N#Cc1ccc(C(c2ccc(C#N)cc2)n2cncn2)cc1 [Letrozole] | suppress serum estrogen levels to the limit of assay detection | – |
| C[C@@H]1[C@H](O)[C@@H](C)/C=C/C=C/CC/C=C/C=C/C=C/C=C/C(O[C@H]2O[C@H](C)[C@@H](O)[C@H](N)[C@@H]2O)CC2O[C@](O)(CC(O)C(O)CCC(O)CC(O)CC(O)CC(=O)O[C@H]1C)CC(O)C2C(=O)O (stereo partly shown) [nystatin] | – | relative risk for spontaneous abortion (first-trimester exposure, independent of drug therapy indication): not |
